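1) Cells in 96-well plates. 2) Compound, 48 h, 5 concentrations. 3) Linear interpolation between surrounding doses. 4) Unreached endpoint = highest concentration. The concentration for 50% growth inhibition is given as GI50. TGI is the concentration that stops growth completely.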

Test systems include LOX IMVI melanoma; MDA-MB-231 breast; SNB-75 CNS; UO-31 renal; CCRF-CEM leukemia; T-47D breast; HT29 colon; NCI-H23 lung; HCC-2998 colon; HOP-62 NSCLC.
What all share (assay): NCI tumour cell line growth inhibition, 48 h

Consider `COc1cc2c(cc1Cc1cccc(Cl)c1F)c(=O)c(C(=O)O)cn2[C@@H](CO)C(C)C`, for which the GI50 is 2.69 µM in the test on LOX IMVI melanoma; 3.84 µM in the test with MDA-MB-231 breast; 2.53 µM in the test with SNB-75 CNS; 2620 nM in the test on UO-31 renal; 3.41 µM in the test with CCRF-CEM leukemia; 5.5 µM in the test on T-47D breast. The GI50 with HT29 colon was 2.62 µM; in the test on NCI-H23 lung, 3.18 µM; with HCC-2998 colon, 3.13 µM; in the test with HOP-62 NSCLC, 5.22 µM. For the same molecule, the TGI in the test with LOX IMVI melanoma is 10.1 µM; with MDA-MB-231 breast, 19.7 µM; with SNB-75 CNS it was 13.7 µM; with UO-31 renal, 11.9 µM; in the test on CCRF-CEM leukemia, 14.2 µM; in the test with T-47D breast it was 18.3 µM. In addition, the TGI stood at 5.56 µM with HT29 colon, 12.4 µM with NCI-H23 lung, 11.6 µM with HCC-2998 colon and 18.6 µM with HOP-62 NSCLC.

`N/C(=N/N=C/c1ccccc1)N/N=C\c1ccccc1`: the GI50 in the test on LOX IMVI melanoma is 6.27 µM; with MDA-MB-231 breast, 10.5 µM; with SNB-75 CNS, 9.67 µM; in the test on UO-31 renal it was 5100 nM; in the test on CCRF-CEM leukemia, 5.13 µM; in the test with T-47D breast, 4.73 µM. For the same molecule, the GI50 with HT29 colon is 3.25 µM; in the test with NCI-H23 lung, 6.78 µM; with HCC-2998 colon, 7.21 µM; in the test on HOP-62 NSCLC it was 9.71 µM. Besides, the TGI with LOX IMVI melanoma is 84.7 µM; in the test with MDA-MB-231 breast it was over 100 µM; in the test on SNB-75 CNS it was over 100 µM; in the test with UO-31 renal, 78.3 µM; with CCRF-CEM leukemia, over 100 µM; with T-47D breast, over 100 µM. For the same molecule, the TGI was 52 µM in the test on HT29 colon, over 100 µM with NCI-H23 lung, 37.8 µM in the test with HCC-2998 colon and over 100 µM with HOP-62 NSCLC.

With `COc1cccc(/C=N/NC(=O)c2ccccc2N2CCCC2)c1O`, the GI50 in the test with LOX IMVI melanoma was 2.54 µM; with MDA-MB-231 breast it was 7.31 µM; in the test with SNB-75 CNS it was 16.9 µM; in the test with UO-31 renal, 2280 nM; in the test on CCRF-CEM leukemia it was 0.712 µM; with T-47D breast it was 3.02 µM. Besides, the GI50 is 30.4 µM with HT29 colon, 7.85 µM in the test on NCI-H23 lung, 47 µM with HCC-2998 colon and 3.58 µM in the test with HOP-62 NSCLC. Besides, the TGI was over 100 µM in the test with LOX IMVI melanoma; over 100 µM with MDA-MB-231 breast; over 100 µM in the test with SNB-75 CNS; over 100 µM with UO-31 renal; over 100 µM with CCRF-CEM leukemia; 36.9 µM with T-47D breast. Besides, the TGI in the test with HT29 colon, in the test with NCI-H23 lung, in the test on HCC-2998 colon and in the test with HOP-62 NSCLC was over 100 µM each time.

For the molecule `O=C([O][Hg][CH2]C1OCCOC1[CH2][Hg][O]C(=O)c1ccccc1)c1ccccc1` (stereo not drawn), the GI50 with LOX IMVI melanoma is 3.66 µM; with MDA-MB-231 breast, 16.3 µM; in the test on SNB-75 CNS, 16 µM; in the test on UO-31 renal it was 1790 nM; with CCRF-CEM leukemia, 1.66 µM; in the test on T-47D breast it was 1.82 µM. Also, the GI50 in the test with HT29 colon was 5.77 µM; with NCI-H23 lung it was 8.21 µM; with HCC-2998 colon, 17.1 µM. For the same molecule, the TGI with LOX IMVI melanoma was 7.56 µM; in the test with MDA-MB-231 breast, 31.7 µM; in the test with SNB-75 CNS, 29.5 µM; in the test with UO-31 renal, 3.27 µM; in the test with CCRF-CEM leukemia, over 23.4 µM; in the test with T-47D breast, 3.59 µM. In addition, the values for the TGI in the test on HT29 colon, in the test on NCI-H23 lung and in the test on HCC-2998 colon were 10.6 µM, 21.3 µM and 30.8 µM, respectively.

With `CCCCCCCCC/C(=N\NC(=O)c1ccncc1)c1ccc(O)c(O)c1O`, the GI50 in the test with LOX IMVI melanoma was 0.0937 µM; with MDA-MB-231 breast, 0.116 µM; with SNB-75 CNS, 0.631 µM; in the test with UO-31 renal, 74.5 nM; with CCRF-CEM leukemia, 0.0426 µM; in the test on T-47D breast, 0.596 µM. Further, the GI50 in the test on HT29 colon was 0.513 µM; with NCI-H23 lung it was 0.393 µM; with HCC-2998 colon, 0.199 µM; in the test on HOP-62 NSCLC it was 0.09 µM. The TGI in the test on LOX IMVI melanoma is 11.9 µM; in the test with MDA-MB-231 breast, 31.5 µM; in the test with SNB-75 CNS it was over 100 µM; with UO-31 renal it was over 29.3 µM; in the test with CCRF-CEM leukemia, 3.63 µM; in the test on T-47D breast it was over 93.6 µM. Further, the TGI in the test on HT29 colon was 32.9 µM; with NCI-H23 lung, 29.1 µM; in the test on HCC-2998 colon, over 36.6 µM; with HOP-62 NSCLC it was 16 µM.

Turning to `CN1CCC2(CC1)NC(=O)c1c(c3ccc(Cl)c(Cl)c3n1C)C2C#N` (stereo not drawn), the GI50 with LOX IMVI melanoma is 4.71 µM; in the test on MDA-MB-231 breast, 5.19 µM; in the test with SNB-75 CNS, 4.46 µM; in the test with UO-31 renal, 4210 nM; in the test with CCRF-CEM leukemia, 6.32 µM; with T-47D breast it was 5.45 µM. The GI50 was 3.95 µM in the test on HT29 colon, 11.4 µM in the test on NCI-H23 lung, 1.89 µM in the test on HCC-2998 colon and 9.72 µM with HOP-62 NSCLC. For the same molecule, the TGI with LOX IMVI melanoma was 18.1 µM; in the test on MDA-MB-231 breast, 15.2 µM; in the test with SNB-75 CNS, 18.8 µM; with UO-31 renal, 17.4 µM; in the test on CCRF-CEM leukemia, over 54.8 µM; in the test with T-47D breast, 20.3 µM. Besides, the TGI with HT29 colon came out at 23.6 µM; in the test on NCI-H23 lung it was 25.7 µM; with HCC-2998 colon, 3.95 µM; in the test on HOP-62 NSCLC, 23.2 µM.

Consider `N#Cc1c(N2CCOCC2)nc(=S)[nH]c1-c1ccccc1`, for which the GI50 in the test with LOX IMVI melanoma was 23.5 µM; in the test on MDA-MB-231 breast it was 7.86 µM; with SNB-75 CNS, 6.12 µM; in the test with UO-31 renal it was 4570 nM; with CCRF-CEM leukemia, 30.9 µM; in the test on T-47D breast it was 4.15 µM. In addition, the GI50 in the test on HT29 colon was 33.5 µM; in the test with NCI-H23 lung, 34.5 µM; in the test on HCC-2998 colon, 77.2 µM; in the test with HOP-62 NSCLC, 7.93 µM. In addition, the TGI with LOX IMVI melanoma, in the test on MDA-MB-231 breast, with SNB-75 CNS, with UO-31 renal, in the test on CCRF-CEM leukemia and in the test with T-47D breast was over 100 µM throughout. Also, the TGI is over 100 µM with HT29 colon, over 100 µM in the test with NCI-H23 lung, over 100 µM with HCC-2998 colon and 68.1 µM with HOP-62 NSCLC.

The values above are taken from PubChem BioAssay (NCI).
